*1 amine or outer side, *2 acyl side, *3 side chain or, on linkers, in order; H or OH if unused. Where a SMILES comes first, the peptide text is derived from it. Bridges are numbered along the chain shown (N, C = ends). [ ]: non-standard residue; d: D form. The star is where a group is joined. ξ: configuration not given here. Ala(piperidin-4-yl) = O=C([C@H](CC1CCN([*:3])CC1)N[*:1])[*:2]; DOTA = O=C(O)CN1CCN(CC(=O)O)CCN(CC(=O)*)CCN(CC(=O)O)CC1; Phe(4-CF3) = N[C@@H](Cc1ccc(C(F)(F)F)cc1)C(=O)O; Ala(morpholin-4-yl) = N[C@@H](CN1CCOCC1)C(=O)O; 2Nal = N[C@@H](Cc1ccc2ccccc2c1)C(=O)O; Gly(4-THP) = N[C@H](C(=O)O)C1CCOCC1; X4 = O=C(C(CC1CCNCC1)N[*:1])[*:2]; Chg = N[C@H](C(=O)O)C1CCCCC1; ξIle = CC[C@H](C)C(N)C(=O)O
What follows are molecules tested against T1, DLL3 (Homo sapiens, UniProt Q9NYJ7) (assay: SPR KD, biotinylated human DLL3 on streptavidin chip (Table 8)). Settings: SPR KD, biotinylated human DLL3 on streptavidin sensor chip, 25° C., 1:1 binding model.
T1 sequence (Q9NYJ7 27-618): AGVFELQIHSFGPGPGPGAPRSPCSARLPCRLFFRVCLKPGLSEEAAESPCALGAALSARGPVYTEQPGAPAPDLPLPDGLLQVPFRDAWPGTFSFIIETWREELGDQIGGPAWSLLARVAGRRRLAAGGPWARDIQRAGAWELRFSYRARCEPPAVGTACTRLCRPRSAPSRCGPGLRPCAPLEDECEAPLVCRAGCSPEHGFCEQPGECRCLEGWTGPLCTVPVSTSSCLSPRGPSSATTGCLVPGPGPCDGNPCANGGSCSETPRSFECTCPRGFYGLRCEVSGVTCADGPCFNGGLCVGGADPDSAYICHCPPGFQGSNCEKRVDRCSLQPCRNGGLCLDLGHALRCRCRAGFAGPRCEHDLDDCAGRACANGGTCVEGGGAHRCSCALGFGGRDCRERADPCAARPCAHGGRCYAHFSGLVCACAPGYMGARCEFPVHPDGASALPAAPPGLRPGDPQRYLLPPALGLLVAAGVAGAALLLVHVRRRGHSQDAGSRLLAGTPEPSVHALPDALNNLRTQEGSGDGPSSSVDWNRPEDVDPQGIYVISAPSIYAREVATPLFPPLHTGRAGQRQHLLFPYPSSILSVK
Parameters: biotin (biotinylated)
Excerpt: Biotinylated target ligand human DLL3 was immobilized on a streptavidin sensor chip. A reference surface was set up for nonspecific binding and refractive index changes. […] Sensorgram curves were fitted with 1:1 binding model, and affinity and kinetic parameters were obtained using Biacore Insight evaluation 4.0. software.

Row | SMILES | Kd [nM]
1 | CC[C@H](C)[C@H](NC(=O)[C@@H](NC(=O)[C@H](Cc1c[nH]c2ccccc12)NC(C)=O)[C@@H](C)O)C(=O)N[C@H]1CSSC[C@@H](C(=O)N[C@@H](Cc2c[nH]c3ccccc23)C(=O)N2CCC[C@H]2C(=O)N[C@H](CCCCNC(=O)CN2CCN(CC(=O)O)CCN(CC(=O)O)CCN(CC(=O)O)CC2)C(N)=O)NC(=O)[C@H](CC(=O)O)NC(=O)[C@H](CCCCNC(=O)CN2CCN(CC(=O)O)CCN(CC(=O)O)CCN(CC(=O)O)CC2)NC(=O)[C@H](Cc2ccc3ccccc3c2)NC(=O)[C@H](CC(N)=O)NC(=O)[C@H](CC(N)=O)NC1=O [compound 253, Ac-W-T-I-C(3)-N-N-(2Nal)-Lys(DOTA)-D-C(3)-W-P-[D-Lys(DOTA)]-NH2] (Ac-WTICNN[2Nal]K(DOTA)DCWP[dK](DOTA)-NH2; disulfide 4-10) | < 1
2 | CC(=O)N[C@@H](Cc1c[nH]c2ccccc12)C(=O)N[C@H](C(=O)N[C@H](C(=O)N[C@H]1CSSC[C@@H](C(=O)N[C@@H](Cc2c[nH]c3ccccc23)C(=O)N2CCC[C@H]2C(N)=O)NC(=O)[C@H](CC(=O)O)NC(=O)[C@H](CCCCNC(=O)CN2CCN(CC(=O)O)CCN(CC(=O)O)CCN(CC(=O)O)CC2)NC(=O)[C@H](Cc2ccc3ccccc3c2)NC(=O)[C@H](CC(N)=O)NC(=O)[C@H](CN2CCOCC2)NC1=O)C1CCCCC1)[C@@H](C)O [compound 325, Ac-W-T-(Chg)-C(3)-[3-(1-morpholinyl)-Ala]-N-(2Nal)-Lys(DOTA)-D-C(3)-W-P-CONH2] (Ac-WT[Chg]C[Ala(morpholin-4-yl)]N[2Nal]K(DOTA)DCWP-NH2; disulfide 4-10) | < 1

Same assay, conditions: biotinylated human DLL3 on streptavidin sensor chip, 25° C., 1:1 binding model; read-out: SPR KD

Row | Kd [nM] | SMILES
3 | 10 to 100 | CC[C@H](C)[C@H](NC(=O)[C@@H](NC(=O)[C@H](Cc1ccc(C(F)(F)F)cc1)NC(C)=O)[C@@H](C)O)C(=O)N[C@H]1CSSC[C@@H](C(=O)N[C@@H](Cc2c[nH]c3ccccc23)C(=O)N2CCC[C@H]2C(N)=O)NC(=O)[C@H](CC(=O)O)NC(=O)[C@H](Cc2cnc[nH]2)NC(=O)[C@H](Cc2c[nH]c3ccccc23)NC(=O)[C@H](CC(N)=O)NC(=O)[C@H](CC(N)=O)NC1=O [compound 215, Ac-(4CF3-F)-T-I-C(3)-N-N-W-H-D-C(3)-W-P-CONH2] (Ac-[Phe(4-CF3)]TICNNWHDCWP-NH2; disulfide 4-10)
4 | < 1 | CC[C@H](C)[C@H](NC(=O)[C@@H](NC(=O)[C@H](Cc1c[nH]c2ccccc12)NC(C)=O)[C@@H](C)O)C(=O)N[C@H]1CSSC[C@@H](C(=O)N[C@@H](Cc2c[nH]c3ccccc23)C(=O)N2CCC[C@H]2C(=O)N[C@H](CCCCNC(=O)CN2CCN(CC(=O)O)CCN(CC(=O)O)CCN(CC(=O)O)CC2)C(N)=O)NC(=O)[C@H](CC(=O)O)NC(=O)[C@H](Cc2cnc[nH]2)NC(=O)[C@H](Cc2ccc3ccccc3c2)NC(=O)[C@H](CC(N)=O)NC(=O)[C@H](CCCCNC(=O)CN2CCN(CC(=O)O)CCN(CC(=O)O)CCN(CC(=O)O)CC2)NC1=O [compound 247] (Ac-WTICK(DOTA)N[2Nal]HDCWP[dK](DOTA)-NH2; disulfide 4-10)
5 | < 1 | CC[C@H](C)C(NC(=O)[C@@H](NC(=O)[C@H](Cc1c[nH]c2ccccc12)NC(C)=O)[C@@H](C)O)C(=O)N[C@H]1CSSC[C@@H](C(=O)N[C@@H](Cc2c[nH]c3ccccc23)C(=O)N2CCC[C@H]2C(=O)N[C@H](CCCCNC(=O)CN2CCN(CC(=O)O)CCN(CC(=O)O)CCN(CC(=O)O)CC2)C(N)=O)NC(=O)[C@H](CC(=O)O)NC(=O)[C@H](Cc2cnc[nH]2)NC(=O)[C@H](Cc2ccc3ccccc3c2)NC(=O)[C@H](CCCCNC(=O)CN2CCN(CC(=O)O)CCN(CC(=O)O)CCN(CC(=O)O)CC2)NC(=O)[C@H](CC(N)=O)NC1=O (stereo partly drawn) [compound 248, Ac-W-T-I-C(3)-N-Lys(DOTA)-(2Nal)-H-D-C(3)-W-P-[D-Lys(DOTA)]-NH2] (Ac-WT[ξIle]CNK(DOTA)[2Nal]HDCWP[dK](DOTA)-NH2; disulfide 4-10)
6 | 1 to 10 | CC[C@H](C)[C@H](NC(=O)[C@@H](NC(=O)[C@H](Cc1c[nH]c2ccccc12)NC(C)=O)[C@@H](C)O)C(=O)N[C@H]1CSSC[C@@H](C(=O)N[C@@H](Cc2c[nH]c3ccccc23)C(=O)N2CCC[C@H]2C(N)=O)NC(=O)[C@H](CC(=O)O)NC(=O)[C@H](Cc2c[nH]cn2)NC(=O)[C@H](Cc2ccc3ccccc3c2)NC(=O)[C@H](CCCCNC(=O)CN2CCN(CC(=O)O)CCN(CC(=O)O)CCN(CC(=O)O)CC2)NC(=O)[C@H](CC(N)=O)NC1=O [compound 250, Ac-W-T-I-C(3)-N-Lys(DOTA)-(2Nal)-H-D-C(3)-W-P-CONH2] (Ac-WTICNK(DOTA)[2Nal]HDCWP-NH2; disulfide 4-10)
7 | < 1 | CC[C@H](C)[C@H](NC(=O)[C@@H](NC(=O)[C@H](Cc1c[nH]c2ccccc12)NC(C)=O)[C@@H](C)O)C(=O)N[C@H]1CSSC[C@@H](C(=O)N[C@@H](Cc2c[nH]c3ccccc23)C(=O)N2CCC[C@H]2C(N)=O)NC(=O)[C@H](CC(=O)O)NC(=O)[C@H](CCCCNC(=O)CN2CCN(CC(=O)O)CCN(CC(=O)O)CCN(CC(=O)O)CC2)NC(=O)[C@H](Cc2ccc3ccccc3c2)NC(=O)[C@H](CC(N)=O)NC(=O)[C@H](CC(N)=O)NC1=O [compound 254] (Ac-WTICNN[2Nal]K(DOTA)DCWP-NH2; disulfide 4-10)
8 | < 1 | CC(=O)N[C@@H](Cc1c[nH]c2ccccc12)C(=O)N[C@H](C(=O)N[C@H](C(=O)N[C@H]1CSSC[C@@H](C(=O)N[C@@H](Cc2c[nH]c3ccccc23)C(=O)N2CCC[C@H]2C(N)=O)NC(=O)[C@H](CC(=O)O)NC(=O)[C@H](CCCCNC(=O)CN2CCN(CC(=O)O)CCN(CC(=O)O)CCN(CC(=O)O)CC2)NC(=O)[C@H](Cc2ccc3ccccc3c2)NC(=O)[C@H](CC(N)=O)NC(=O)C(CN2CCOCC2)NC1=O)C(C)(C)C)[C@@H](C)O (stereo partly drawn) [compound 309, Ac-W-T-(Tbg)-C(3)-[3-(1-morpholinyl)-Ala]-N-(2Nal)-Lys(DOTA)-D-C(3)-W-P-CONH2]
9 | < 1 | CC(=O)N[C@@H](Cc1c[nH]c2ccccc12)C(=O)N[C@H](C(=O)N[C@H](C(=O)N[C@H]1CSSC[C@@H](C(=O)N[C@@H](Cc2c[nH]c3ccccc23)C(=O)N2CCC[C@H]2C(N)=O)NC(=O)[C@H](CC(=O)O)NC(=O)[C@H](CCCCNC(=O)CN2CCN(CC(=O)O)CCN(CC(=O)O)CCN(CC(=O)O)CC2)NC(=O)[C@H](Cc2ccc3ccccc3c2)NC(=O)[C@H](CC(N)=O)NC(=O)C(CC2CCNCC2)NC1=O)C1CCOCC1)[C@@H](C)O (stereo partly drawn) [compound 319, Ac-W-T-(THPG)-C(3)-[3-(4-piperidinyl)-Ala]-N-(2Nal)-Lys(DOTA)-D-C(3)-W-P-CONH2] (Ac-WT[Gly(4-THP)]C[X4]N[2Nal]K(DOTA)DCWP-NH2; disulfide 4-10)
10 | < 1 | CC(=O)N[C@@H](Cc1c[nH]c2ccccc12)C(=O)N[C@H](C(=O)N[C@H](C(=O)N[C@H]1CSSC[C@@H](C(=O)N[C@@H](Cc2c[nH]c3ccccc23)C(=O)N2CCC[C@H]2C(N)=O)NC(=O)[C@H](C)NC(=O)[C@@H](CCCCNC(=O)CN2CCN(CC(=O)O)CCN(CC(=O)O)CCN(CC(=O)O)CC2)NC(=O)[C@H](Cc2ccc3ccccc3c2)NC(=O)[C@H](CC(N)=O)NC(=O)[C@H](CC2CCNCC2)NC1=O)C1CCOCC1)[C@@H](C)O [compound 327, Ac-W-T-(THPG)-C(3)-[3-(4-piperidinyl)-Ala]-N-(2Nal)-Lys(DOTA)-(Ala)-C(3)-W-P-CONH2] (Ac-WT[Gly(4-THP)]C[Ala(piperidin-4-yl)]N[2Nal][dK](DOTA)ACWP-NH2; disulfide 4-10)
